# Laboratory results taken from patent publication US8507445B2, “Compositions and methods of use of targeting peptides for diagnosis and therapy of human cancer” (Board of Regents, The University of Texas System, priority 2002, dated 2013).
# Tested on: DU145 xenografts
# Assay: Biopanning of X2CX14CX2 phage library in tumor-bearing mice
# Format: in vivo, nude mice
# Conditions: third round, 76 translated clones
# Procedure: DU145 prostate tumor cells were injected subcutaneously into the right fat pad of nude mice. A large phage library (X2CX14CX2) was prepared as discussed above and 10^9 phage were injected into male tumor-bearing nude mice. After 24 hr circulation, tumors were removed and phage recovered from the tumors using the bulk method disclosed above. The recovered phage were amplified, titered and reinjected into a new set of tumor bearing nude mice. The biopanning protocol was repeated for a total of three rounds. Ninety-six phage clones recovered from the third round of biopanning were selected for sequencing. Translated sequences were obtained for 76 of the 96 clones.
row,Sequence,number of times the sequence was obtained
1,ARCREDTGFMGLGSANICTD,ARCREDTGFMGLGSANICTD (1)
2,DACSRFLGERVDATAAGCSR,DACSRFLGERVDATAAGCSR (2)
3,DRCVLVRPEFGRGDARLCHS,DRCVLVRPEFGRGDARLCHS (2)
4,EGCSDIMNTAAERVTGDCSY,EGCSDIMNTAAERVTGDCSY (2)
5,GDCETNNVTKVGGITRNCVG,GDCETNNVTKVGGITRNCVG (1)
6,GNCMGLQVSELFMGPYKCRQ,GNCMGLQVSELFMGPYKCRQ (2)
7,GPCAATGVNPGDHGAAVCDQ,GPCAATGVNPGDHGAAVCDQ (1)
8,GTCPRQFFHMQEFWPSDCSR,GTCPRQFFHMQEFWPSDCSR (3)
9,GYCLTVVGGAVLTLALLCVT,GYCLTVVGGAVLTLALLCVT (1)
10,HTCWGARDVAQPSGTVRCLK,HTCWGARDVAQPSGTVRCLK (1)
11,IGCNHPSPLGSTVVPTYCFK,IGCNHPSPLGSTVVPTYCFK (3)
12,KICPVTNMWTTPSWAHKCGM,KICPVTNMWTTPSWAHKCGM (1)
13,KLCYRSSAGSELRPPEKCAY,KLCYRSSAGSELRPPEKCAY (1)
14,KSCGKYGLIVGQPFAEHCPP,KSCGKYGLIVGQPFAEHCPP (1)
15,LGCNKGRYWLSTRLSVSCAL,LGCNKGRYWLSTRLSVSCAL (1)
16,LRCPLEVDRPNRDPAFLCSQ,LRCPLEVDRPNRDPAFLCSQ (1)
17,MHCTSQTLRGTPSLAPKCSD,MHCTSQTLRGTPSLAPKCSD (1)
18,NDCSAHAQPGWDEVPPMCNQ,NDCSAHAQPGWDEVPPMCNQ (1)
19,NNCPVEGSQQNYSGATWCRA,NNCPVEGSQQNYSGATWCRA (1)
20,NQCSSLLTYQGWKRTKDCIP,NQCSSLLTYQGWKRTKDCIP (1)

row,Sequence,number of times the sequence was obtained
1,NRCMPGFLDDADSAASPCGS,NRCMPGFLDDADSAASPCGS (1)
2,PGCVVSPFALSAQGTSVCTI,PGCVVSPFALSAQGTSVCTI (1)
3,PNCDLDDIVLNPYTAGPCGT,PNCDLDDIVLNPYTAGPCGT (1)
4,PNCYSGDGEISSHIPVQCLM,PNCYSGDGEISSHIPVQCLM (1)
5,QHCVKGQFPFRESVTITCNS,QHCVKGQFPFRESVTITCNS (1)
6,RECGRTVHRYPWGSPESCER,RECGRTVHRYPWGSPESCER (2)
7,RGCTEAAGLVIGITTHQCGN,RGCTEAAGLVIGITTHQCGN (3)
8,RGCWRDSTAWHVSYPVECLA,RGCWRDSTAWHVSYPVECLA (1)
9,RSCVNSDTGVLQRGAPSCLF,RSCVNSDTGVLQRGAPSCLF (1)
10,RTCEEVRNRALEELTNFCPY,RTCEEVRNRALEELTNFCPY (1)
11,RTCQVRSNNISPRMALACVT,RTCQVRSNNISPRMALACVT (1)
12,SRCHALRSQSVSTSAGACIS,SRCHALRSQSVSTSAGACIS (1)
13,TECRGASSGSVSGAATDCRD,TECRGASSGSVSGAATDCRD (1)
14,TLCPPASMGLGREKPRLCSV,TLCPPASMGLGREKPRLCSV (1)
15,TLCRSLEHEVGLFKPRECPF,TLCRSLEHEVGLFKPRECPF (1)
16,TSCVRTGHDENLLKAAYCSS,TSCVRTGHDENLLKAAYCSS (1)
17,TTCNKSMSSQPMRDSRECHR,TTCNKSMSSQPMRDSRECHR (1)
18,VACDISAVERLPASARSCKT,VACDISAVERLPASARSCKT (1)
19,VECVMASASTDGTAAHPCKP,VECVMASASTDGTAAHPCKP (1)
20,VFCCGSYCGGVEMLASRCGH,VFCCGSYCGGVEMLASRCGH (2)
